Read-outs that look alike come from different tables or passages of the source.
How the values were obtained:
[1] = system: threshold value of pain due to pressure stimuli (tail); conditions: for Analgesic effect: 100% = threshold raised by 160 g
[2] = system: fever (Mycobacterium butyricum); test: Antipyretic action; format: in vivo, rat (Wistar strain, female)
Experimental: A suspension (0.6 mg/0.1 ml) of killed and dried Mycobacterium butyricum in liquid paraffin was subcutaneously injected in an amount of 0.1 ml into the subplantar region of the hind paw of each Wistar strain female rat weighing about 180 g. After 14 hours, the fevered rats were divided into groups, and each test compound was orally administered to each group to examine the antipyretic effect.

[3] = system: Phenol Red (PSP) excretion; test: Uricosuric action (a), inhibition of Phenol Red (PSP) excretion; format: in vivo, rabbit (male)
Experimental: (a) The action was examined by the method of B. B. Brodie et al. who reported that the inhibitory action on Phenol Red (PSP) excretion correlates with the uricosuric action [Proc. Soc. Exp. Biol. Med., 86, 884 (1954)]. To a male rabbit weighing 2 to 3 kg was intraperitoneally administered the test compound. After 30 minutes, 75 mg/kg of a Phenol Red suspension was injected into the pinna vein of the rabbit and 30 minutes thereafter a blood sample was drawn from the pinna vein. The blood sample was centrifuged and the serum was diluted with physiological saline. The diluted serum was treated with 0.1 N NaOH to develop the color. The concentration of Phenol Red in the serum was determined from the absorbance at 560 mμ.

uric acid in plasma = test: Uricosuric action (b), uric acid in plasma of uric acid loaded rats; format: in vivo, rat (Wistar strain, male)
Experimental: (b) After fasting overnight, the test compound was orally administered to a Wistar strain male rat weighing 150 to 200 g. After one hour, the rat was loaded with 100 mg/kg of uric acid by intraperitoneal administration. Thirty minutes thereafter, a blood sample was drawn from the cervical vein and the uric acid concentration in the plasma was determined by use of a kit (Uric acid test Wako) for the uric acid determination.

Glomerulonephritis = test: Action on glomerulonephritis in rats; format: in vivo, rat (Wistar strain, male); conditions: 25 mg/kg p.o./day
Excerpt: (ii) Action on glomerulonephritis in rats
Glomerulonephritis was induced in Wistar strain male rats (each weighing 180 to 200 g) by use of an anti-rat's kidney rabbit serum obtained from the serum of a rabbit sensitized with a homogenate of rat's kidney cortice. To the rat producing stable proteinuria was orally administered the test compound repeatedly at the rate shown in Table 12 for 2 weeks, and the inhibition of uric protein was examined.

[4] = system: prostaglandin biosynthesis (homogenate of guinea pig's lung); test: Inhibitory action on prostaglandin biosynthesis (TBA method); conditions: read-out: ID50
Excerpt: Using a homogenate of guinea pig's lung as an enzyme preparation for the biosynthesis of prostaglandin, the inhibitory activity of the test compound against the prostaglandin biosynthesis was examined by the TBA (thiobarbituric acid) method.

Vascular permeability [5] = test: Vascular permeability in rat (Whittle's method); format: in vivo, rat (Wistar strain, male)
Experimental: (ii) Vascular permeability in rat (Whittle's method)
The test compound was orally administered to each Wistar strain male rat (weighing about 150 g) which had been fasted overnight. After 55 minutes, 0.5 ml of a 0.5% Evans Blue solution was intravenously injected. Five minutes thereafter, 0.2 ml/100 g of a 3%(V/V) acetic acid solution was intraperitoneally injected. After 60 minutes from the injection of the acetic acid solution, the rats were killed by suffocation with chloroform. After immediate laparotomy, the dye leaked into the peritoneal cavity was washed out with physiological saline. The washings were made up with the saline to 30 ml and the absorbance at 640 mμ was measured to examine the effect of the test compounds by comparing the amounts of leaked dye per rat with one another.

[6] = system: phenylbenzoquinone writhing; test: Analgesic activity, phenylbenzoquinone method in mouse; format: in vivo, mouse (ddY strain, male); conditions: for Frequency of writhing, mean ± S.E.: during 10 minutes
Experimental: (i) Phenylbenzoquinone method in mouse
The test compound was orally administered to each ddY strain male mouse (weighing 22±2 g; 8 mice per group). […] The frequency of writhing during 10 minutes from 5-minutes after the injection of phenylbenzoquinone was measured and compared with that of a control group to which a 0.5% Tween 80 solution was administered. The percent inhibition was calculated by the following equation: [formula]

[7] = Test for ulcerogenic action (i), single dose, fasted rats; format: in vivo; conditions: rat, in vivo, po
Experimental: (§1) (4) Test for ulcerogenic action
(§2) After 18 hours, the rats were killed by suffocation with chloroform and their stomachs were excised. After having been filled with 5 ml of 1% formalin to fix the gastric mucosa, each stomach was incised along the greater curvature to inspect grossly the extent of injury of the gastric mucosa. The extent of injury was scored as follows: 0, no lesion; 1, petechia or erosion; 2, 1-5 small ulcers; 3, many small ulcers; 4, many large ulcers or perforation. The intestinal injury was evaluated based on the incidence of erosion.

[8] = system: gastric mucosa and intestine; test: as above; format: in vivo; conditions: for Gastric glandular score: 18 hours, score 0 (no lesion) to 4 (many large ulcers or perforation)
Experimental: as §1, §2

[9] = system: gastric mucosa and intestine; test: Test for ulcerogenic action (ii), three doses, rats on normal meal; format: in vivo, rat (Donryu strain, male); set-up: scale not given here
Experimental: (ii) In the same manner as in (i), the test compound was orally administered to each Donryu strain male rat (weighing about 180 g; 10 rats per group) which had received normal meal. The second dose was administered after 8 hours and the third dose after 16 hours from the second dose. Five hours after the last administration, the rats were treated in the same manner as in (i). The gastric mucosa injury and the intestinal injury were scored in the same manner as in (i).

Vascular permeability [10] = test: Vascular permeability in mice (Whittle's method); format: in vivo, mouse (ddY strain, male); conditions: for Inhibition: dye leakage
Experimental: (i) Vascular permeability in mice (Whittle's method)
The test compound was orally administered to each ddY strain male mouse (weighing each about 20 g). After 20 minutes, 0.1 ml/10 g of a 4%(Wt/V) solution of Pontamine Sky Blue in physiological saline was intravenously injected and 10 minutes thereafter 0.1 ml/10 g of a 0.7%(V/V) solution of acetic acid in physiological saline was injected intraperitoneally. After 30 minutes, the mice were killed by suffocation with chloroform. After immediate laparotomy, the dye leaked into the peritoneal cavity was washed out with distilled water. The washings were made up with water to 30 ml and the absorbance at 620 mμ was measured. The amount of leaked dye per 20 g of mouse weight was compared.

[11] = system: pain threshold (brewer's yeast, hind paw); test: Analgesic activity, Randall-Selitto method in rat; format: in vivo, rat (Wistar strain, male); conditions: for Inhibition: 100% = pain threshold raised by 150 g
Experimental: (ii) Randall-Selitto method in rat
After one hour, the test compound was orally administered. One hour thereafter, the pain threshold value was measured four times at a time interval of one hour. The mean value of four values obtained was taken as the pain threshold value of each group of rats. The activity of the drug was assumed to be 100% when the pain threshold value was raised by 150 g.

[12] = system: Carrageenin-induced edema; test: Carrageenin-induced edema; format: in vivo, rat (Donryu strain, male); conditions: Rattus norvegicus, po, mean in 5 hours, read-out: Inhibitory percent of swelling
Experimental: (iii) Carrageenin-induced edema
Each of the 6 Donryu strain male rats per group (each weighing about 140 g), which had been fasted overnight, was orally loaded with 4 ml of water and, after 30 minutes, the test compound was orally administered thereto. Thirty minutes thereafter, a 1%(Wt/V) solution of carrageenin in physiological saline was subcutaneously injected into the subplantar region of the left hind paw. At a time interval of one hour, starting from the end of the first hour till the end of the fifth hour after injection of carrageenin, the paw volume was measured by means of a manometer and pressure transducer. By comparison with the percent increase in swelling of the control group of rats to which a 0.5%(V/V) solution of Tween 80 had been administered, the mean inhibitory percent in 5 hours of swelling was calculated by the following equation: [formula]

in vivo = conditions: rat, po
Adjuvant arthritis = test: Adjuvant arthritis; format: in vivo, rat (Sprague-Dawley strain, male); conditions: 1 mg/kg p.o./day, mean during one week
Experimental: A suspension containing 6 mg/ml of killed and dried Mycobacterium butyricum in liquid paraffin was subcutaneously injected into the subplantar region of the left hind paw of Sprague-Dawley strain male rats (weighing 180 to 200 g) in a proportion of 0.1 ml/rat. After 14 days, the rats having inflammatory paws of similar volumes were selected and the test compound was orally administered to the rats repeatedly at the rate shown in Table 4 during one week and the mean inhibitory percent of swelling during one week was determined.

`CCCCC1C(=O)N(c2ccccc2)N(c2ccccc2)C1=O` [Phenylbutazone] showed an Analgesic effect ([1]; 25 mg/kg p.o.) of 26%, an Analgesic effect ([1]; 100 mg/kg p.o.) of 70% and an ED50 ([1]; Mus musculus, po) of 53 mg/kg. For the same compound, the “Mean decrease in temp.” value ([2]; 5 mg/kg p.o.) was 0.27 °C, the “Mean decrease in temp.” value ([2]; 20 mg/kg p.o.) was 1.10 °C and the “Mean decrease in temp.” value ([2]; 100 mg/kg p.o.) was 1.35 °C. For the same compound, the ED1.0 ([2]; Rattus norvegicus, po) was 26.5 mg/kg, the “Concentration of PSP in serum, mean ± S.E.” value ([3]; 50 mg/kg i.p.) was 174.0 ± 5.0 µg/mL and the “Concentration of PSP in serum, mean ± S.E.” value ([3]; 100 mg/kg i.p.) was 238.0 ± 15.9 µg/mL. The “Uric acid concentration in plasma, mean ± S.E.” value (uric acid in plasma; 50 mg/kg p.o.) was 5.3 ± 0.37 mg/dL, the “Uric acid concentration in plasma, mean ± S.E.” value (uric acid in plasma; 100 mg/kg p.o.) was 3.3 ± 0.25 mg/dL and the “Inhibition of uric protein” value (Glomerulonephritis; 7th day) was 1.0%. For the same compound, the “Inhibition of uric protein” value (Glomerulonephritis; 14th day) was 11.2% and the IC50 [4] was 68 µM.
Compound `CC(C(=O)O)c1ccc(-c2cccs2)cc1` (stereo not shown) [Compound C2] has an Inhibition (Vascular permeability [5]; 1 mg/kg p.o.) of 16.4%, an Inhibition (Vascular permeability [5]; 5 mg/kg p.o.) of 47.3% and an ED30 (Vascular permeability [5]; po, rat, read-out: ED30) of 2.1 mg/kg. The “Frequency of writhing, mean ± S.E.” value ([6]; 10 mg/kg p.o.) was 22.3 ± 1.9, the “Frequency of writhing, mean ± S.E.” value ([6]; 20 mg/kg p.o.) was 14.6 ± 3.1 and the “Frequency of writhing, mean ± S.E.” value ([6]; 40 mg/kg p.o.) was 11.1 ± 2.4. The inhibition in vivo at 10 mg/kg ([6]; Mus musculus, po, 10 min, writhing, 10 mg/kg p.o., read-out: Inhibition) was 5.5%, the inhibition in vivo at 20 mg/kg ([6]; Mus musculus, po, 10 min, writhing, 20 mg/kg p.o., read-out: Inhibition) was 38.1% and the inhibition in vivo at 40 mg/kg ([6]; Mus musculus, po, 10 min, writhing, 40 mg/kg p.o.) was 53%. For the same compound, the ED50 ([6]; po, mouse, read-out: ED50) was 33 mg/kg, the TD50 at 18 h [7] was 25 mg/kg and the Intestine erosion incidence ([8]; 10 mg/kg p.o.) was 1/7. For the same compound, the Gastric glandular score ([8]; 10 mg/kg p.o.) was 1.11 ± 0.21, the Intestine erosion incidence ([8]; 30 mg/kg p.o.) was 1/7 and the Gastric glandular score ([8]; 30 mg/kg p.o.) was 1.89 ± 0.24. The Intestine erosion incidence ([8]; 100 mg/kg p.o.) was 6/7, the Gastric glandular score ([8]; 100 mg/kg p.o.) was 3.61 ± 0.26 and the Death incidence ([8]; rat, in vivo) was 3/7. For the same compound, the “Score, intestine, mean ± S.E.” value ([9]; 5 mg/kg × 3 p.o.) was 1.07 ± 0.30, the “Score, stomach, mean ± S.E.” value ([9]; 5 mg/kg × 3 p.o.) was 1.21 ± 0.18 and the “Score, intestine, mean ± S.E.” value ([9]; 15 mg/kg × 3 p.o.) was 1.17 ± 0.21. The “Score, stomach, mean ± S.E.” value ([9]; 15 mg/kg × 3 p.o.) was 2.33 ± 0.31, the “Dye leakage (P.S.B.) mean ± S.E.” value (Vascular permeability [10]; 5 mg/kg p.o.) was 314.7 ± 31.3 μg/20g and the “Dye leakage (P.S.B.) mean ± S.E.” value (Vascular permeability [10]; 10 mg/kg p.o.) was 264.8 ± 21.8 μg/20g. It also gave an Inhibition (Vascular permeability [10]; 5 mg/kg p.o.) of 1.9%, an Inhibition (Vascular permeability [10]; 10 mg/kg p.o.) of 17.5% and an ED30 (Vascular permeability [10]; po, mouse, read-out: ED30) of 19.8 mg/kg. The Inhibition ([11]; 1 mg/kg p.o.) was 33.8%, the Inhibition ([11]; 5 mg/kg p.o.) was 35.2% and the Inhibition ([11]; 25 mg/kg p.o.) was 58.5%. The ED50 ([11]; po, rat, read-out: ED50) was 14.5 mg/kg, the inhibition in vivo at 1 mg/kg ([12]; 1 mg/kg p.o.) was 11.8% and the inhibition in vivo at 5 mg/kg ([12]; 5 mg/kg p.o.) was 32.9%. The LD50 (in vivo) was 115 mg/kg and the “Inhibitory percent of swelling” value (Adjuvant arthritis) was 7.2%.

Source: patent publication US4230719A, “Novel 2-[4-(3-methyl-2-thienyl)phenyl]propionic acid and pharmaceutically acceptable salt thereof and method for treating symptoms of inflammation and pain” (Toyama Chemical Co., Ltd., priority 1977, dated 1980)
